From publication PMC8625357, “Metabolism of Selected 2-Arylbenzofurans in a Colon In Vitro Model System” (Foods, 2021)
Where “and” joins values, the source holds several entries; their conditions need not be identical. Equal values may be shown once.

Legend:
human fecal microbiota = test: In vitro batch fermentation with human fecal microbiota; format: in vitro ADME; parameters: final concentration after 8 h of fermentation: reference not given here; conditions: for bacterial metabolites detected: feces from three donors, 8 h
Description: Using a batch fermentation model of the human colon, 2-arylbenzofurans were incubated after the addition of human fecal bacteria from three donors. Samples were collected at 0, 2, 4, and 8 h and the effect of microbiota on tested 2-arylbenzofurans was determined by UHPLC/MS HRAM.
Medium was prepared from 225 mL of distilled water, 112.5 mL of macromineral solution, 56.25 μL of micromineral solution, 562.5 μL of 0.1% resazurin solution, and 1.125 g of tryptone. The macromineral solution was prepared from 7.14 g of Na2HPO4, 6.2 g of KH2PO4, 0.6 g of MgSO4, and up to 1 L of distilled water. The micromineral solution was made of 2.64 g of CaCl2, 2 g of MnCl2, CoCl2, 1.6 g of FeCl3, and up to 20 mL of distilled water. CO3 buffer was created by mixing 1 g of NH4HCO3, 8.75 g of NaHCO3, and distilled water up to 250 mL.
Phosphate buffer for fecal slurries was created by dissolving 1.77 g of KH2PO4 in 195 mL of distilled water and 3.62 g of Na2HPO4 in 305 mL of distilled water (both 1/15M). The acidity of the mixed phosphate buffer was adjusted to a neutral pH by hydrochloric acid. The reducing solution was created by mixing 125 mg of cysteine hydrochloride, 125 mg of Na2S, 0.8 mL of 1M NaOH, and distilled water up to 20 mL.
Mulberrofuran Y (1), moracin C (2), and mulberrofuran G (3) were dissolved in DMSO to a final concentration of 10 mg/mL. After boiling the fermentation medium and sodium phosphate buffer, both were cooled to 37 °C. To remove oxygen, the samples were purged with nitrogen gas (approximately 30 min). The pH of the medium was equilibrated to neutral pH using HCl. For each fermentation bottle, 17.18 mL of fermentation medium and 0.8 mL of reducing solution were transferred to create fermentation vials. Fecal slurry was prepared immediately after sampling from each donor by homogenizing the collected feces in a stomacher bag with phosphate buffer to produce a 25% fecal slurry. After filtration through the mesh, 2 mL of the filtered fecal slurry were added to each fermentation bottle. Finally, 20 μL of the tested compound or DMSO as a negative control were added. The bottles were incubated at 37 °C for 8 h with stirring at 100 strokes per minute. Aliquots of fecal suspensions were collected at 0, 2, 4, and 8 h, and stored at −80 °C until further analysis.
First, 400 μL sample of supernatant fluid were defrosted and centrifuged (5 min/15,000 RPM) and the pellet was erased. Supernatant was combined with 20 μL of ^13C6 trans-resveratrol in methanol (2 μg/mL), which was used as an internal standard. Samples were extracted 3 times with 2.5 mL of ethyl acetate and 2 mL of ultra-pure water. After liquid-liquid extraction, ethyl acetate was evaporated with nitrogen gas and redissolved in 1 mL of methanol (VWR Chemicals, Stribrna Skalice, Czech Republic) in combination with formic acid (Fisher Scientific, Merelbeke, Belgium) (1%).
(§1) The analysis was performed on an LC/MS system consisting of an Ultimate 3000 UPLC chromatograph Thermo Fisher Scientific (Waltham, MA, USA) coupled to an Impact II ultra-high resolution high mass accuracy mass spectrometer (HRAM) Q-TOF (Bruker Daltonics, Bremen, Germany) equipped with an electrospray ionization (ESI) source.
(§2) The separation was carried out on a Phenomenex F5 Kinetex column (1.7 μm 100 Å 100 × 2.1 mm) (Phenomenex, Torrance, CA, USA) by using a mobile phase consisting of 0.1% formic acid (solvent A) and methanol (solvent B). The binary gradient was run at a flow rate of 0.2 mL/min as follows: 0–3 min isocratic at 20% B, 3–6 min from 20% to 50% B, 6–15 min isocratic at 100% B, and 15–20 min isocratic at 20% B. The column oven was adjusted to 35 °C, and the injection volume was 5 μL.
For metabolite screening, the ESI source was set in both positive and negative mode. Semiquantitative analysis was performed in negative mode with the parameters listed in the Appendix A. Each compound was confirmed by MS/MS fragmentation with a collision energy voltage (20, 30, and 50 eV). […]

Caco-2 cell line = test: Permeability and metabolism assay on Caco-2 cell line in Transwell plates; format: in vitro ADME, human; conditions: for Apical side (unchanged parent compound) / Basolateral side (unchanged parent compound) / Cells (unchanged parent compound) / Transformed (converted or metabolized): of the initial 20 μM as 100%, after 4 h; for Transformed (converted or metabolized): remainder
Description: as §1, §2
For metabolite screening, the ESI source was set in both positive and negative mode. Semiquantitative analysis was performed in negative mode with the parameters listed in the Appendix A. Each compound was confirmed by MS/MS fragmentation with a collision energy voltage (20, 30, and 50 eV). Data acquisition was performed using HyStar 3.2 SR4, Otof series 4.0 (Bruker Daltonics, Bremen, Germany) and Chromeleon Xpress (Thermo Fisher Scientific, Waltham, MA, USA) software and the data obtained were analyzed by using DataAnalysis 4.3. (Bruker Daltonics, Bremen, Germany). Commercially available standards of mulberrofuran Y (1), moracin C (2), and mulberrofuran G (3), each at 9 concentration levels ranging from 0.5–500 ng/mL, were used for calibration. A list of the 2-arylbenzofurans monitored in the samples is given in the Appendix B.
The Caco-2 cell lines were purchased from the American Type Tissue Collection (Rockville, MD, USA). Caco-2 cells in Transwells at passage 25 were used. More information on cell culture and passaging is described in [17].
Cells were cultured in DMEM-F12 (Dulbecco’s modified Eagles medium—Nutrient Mixture F-12) supplemented with 10% FBS (fetal bovine serum), 1% nonessential amino acids, 1% penicillin, and streptomycin, all obtained from Sigma-Aldrich (Prague, Czech Republic) in humidified air containing 5% CO2. Cells were seeded at a density of 2.6 × 10^5 cells/cm in 24-wells. The inserts were pre-filled with 50 µL of medium before seeding the cells. After seeding, the basolateral side of the chamber was filled with 1 mL of DMEM, and cells were grown in a humidified atmosphere of 5% CO2 at 37 °C. Non-adherent cells were removed by removing the medium after 6 h of incubation and replaced with 0.5 mL of fresh DMEM. The culture medium was replaced seven times a week for 21 to 25 days prior to the transport experiment.
The filter inserts containing a monolayer of the Caco-2 cell line were washed three times with HBBS (Hanks’ Balanced Salt solution) heated to 37 °C and pH 7.4. The integrity of the cell monolayer was confirmed by measuring the transepithelial electrical resistance (TEER), which had to be at least 600 Ω. After adding 25 µM lucifer yellow, the plates were incubated at 37 °C in 5% CO2 atmosphere for 1 h with shaking (150 rpm). Using a Tecan Infinite M200 reader (Excitation/Emission wavelength 480 nm/530 nm), the plates were measured. Only plates with an integrity greater than 95% were used in the following experiment.
Initially, 500 µL of 20 µM test substance solutions were added to the apical side of each insert and 1000 µL of HBSS were added to the basolateral side. At the same time, 50 µL were taken immediately from the apical side at the time point of 0 h. For future analysis, basolateral sampling times of 0.5, 1, 1.5, 2, 3, and 4 h were chosen while placing the plates in the incubator and using an orbital shaker (150 rpm). In this experiment, 500 µL of sample were always taken from the basolateral side and replaced with an equal amount of pure HBSS. After 4 h, the apical side was simultaneously removed, and the inserts were washed three times with HBSS. […]

[1] = system: THP-1 human monocytic leukemic cell line; parameters: method as in PMID 24901948; conditions: read-out: cytotoxic activity; cited from earlier work
[2] = parameters: method as in PMID 15636183; conditions: cited from earlier work
COX = system: COX; parameters: method as in PMID 3097265; conditions: cited from earlier work

| SMILES | final concentration after 8 h of fermentation (human fecal microbiota; donor D1) [%] | final concentration after 8 h of fermentation (human fecal microbiota; donor D2) [%] | bacterial metabolites detected (human fecal microbiota) | Apical side (unchanged parent compound) (Caco-2 cell line) [%] | Basolateral side (unchanged parent compound) (Caco-2 cell line) [%] | Cells (unchanged parent compound) (Caco-2 cell line) [%] | Transformed (converted or metabolized) (Caco-2 cell line) [%] | IC50 [1] [µM] | also measured |
| --- | --- | --- | --- | --- | --- | --- | --- | --- | --- |
| CC(C)=CCc1c(O)cc(-c2cc3ccc(O)cc3o2)cc1O [Moracin C (2), moracin C] | 66 ± 3 | 87 ± 10 | No metabolites were detected | 0.7 ± 0.2 | 0 ± 0 | 8.2 ± 0.5 | 91.1 ± 0.7 | 3.2 ± 0.13 | Apical side (unchanged parent compound) (Caco-2 cell line; listed as moracin C (2)): 0.7 ± 0.2%; Cells (unchanged parent compound) (Caco-2 cell line; listed as moracin C (2)): 8.2% and 8.2 ± 0.5%; Transformed (converted or metabolized) (Caco-2 cell line; listed as moracin C (2)): 91.1 ± 0.7% |
| COc1c(O)cc2oc(-c3cc(O)cc(O)c3)cc2c1C/C=C(\C)CCC=C(C)C [Mulberrofuran Y (1), mulberrofuran Y] | 25 ± 0 | 69 ± 8 | No metabolites were detected | 8.9 ± 5.9 | 0 ± 0 | 85.3 ± 19.9 | 5.8 ± 25.8 | 4.8 ± 0.19 | became detectable on the basolateral side after (Caco-2 cell line; incubation time, basolateral sampling 0.5-4 h): 3 h; Apical side (unchanged parent compound) (Caco-2 cell line; listed as mulberrofuran Y (1)): 8.9 ± 5.9%; Basolateral side (unchanged parent compound) (Caco-2 cell line; listed as mulberrofuran Y (1)): no amount; Cells (unchanged parent compound) (Caco-2 cell line; listed as mulberrofuran Y (1)): 85.3% and 85.3 ± 19.9%; Transformed (converted or metabolized) (Caco-2 cell line; listed as mulberrofuran Y (1)): 5.8 ± 25.8% |
| CC1=CC2c3c(O)cc(-c4cc5ccc(O)cc5o4)cc3OC3(c4ccc(O)cc4O)Oc4cc(O)ccc4C(C1)C23 (centres unmarked) [Mulberrofuran G (3), mulberrofuran G] | – | – | No metabolites were detected | 2.7 ± 0.5 | 0 ± 0 | 14.0 ± 0.6 | 83.3 ± 1.1 | – | antimicrobial effects [2]: potent antimicrobial effects; concentration of parent compound after fermentation (human fecal microbiota; after 8 h, initial 10 μg/mL, in 2 donors): 5000 ng/mL; concentration of parent compound, minimum (human fecal microbiota; at 2 h, initial 10 μg/mL, the one donor in which compound was stable): 9000 ng/mL; concentration of parent compound after fermentation (human fecal microbiota; at 8 h, initial 10 μg/mL, the one donor in which compound was stable): 10000 ng/mL; COX inhibitor (COX): inhibitor; Apical side (unchanged parent compound) (Caco-2 cell line; listed as mulberrofuran G (3)): 2.7 ± 0.5%; Basolateral side (unchanged parent compound) (Caco-2 cell line; listed as mulberrofuran G (3)): nothing; Cells (unchanged parent compound) (Caco-2 cell line; listed as mulberrofuran G (3)): 14% and 14.0 ± 0.6%; Transformed (converted or metabolized) (Caco-2 cell line; listed as mulberrofuran G (3)): 83.3 ± 1.1% |
